Laboratory results as given in US20230203060A1 (GENFLEET THERAPEUTICS (SHANGHAI) INC., priority 2020, published 2023).

Tests used:
[1] = test system: KRAS G12C mutant NCI-H358 cells; test: Cell proliferation inhibition experiment, 3D spheroid, CellTiter-Glo, NCI-H358; assay type: cell-based, human; conditions: Homo sapiens, NCI-H358, 120 h, NCI-H358 (KRAS G12C mutant) 3D spheroid, 5 days with compound, CellTiter-Glo; read-out: H358 IC50
How it was run: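 CellTiter-Glo luminescence after 5 days' compound treatment (3.16-fold series, 0.1% DMSO) of overnight-formed spheroids in 2% FBS medium: H358 seeded at 800 cells/well in RPMI-1640, A549 at 400 cells/well in F-12K. IC50 derived by four-parameter fit of inhibition normalized to DMSO control and blank.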

[2] = test system: KRAS G12C mutant MIA PaCa-2 cells; test: Cell proliferation inhibition experiment, 3D spheroid, CellTiter-Glo, MIA PaCa-2; assay type: cell-based, human; conditions: Homo sapiens, MIA PaCa-2, 120 h, 3D cell model in 384-well spheroid plate, 5 days, CellTiter-Glo; read-out: MIA-PaCa2 IC50
How it was run: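 Luminescent ATP read-out (CellTiter-Glo) after 5-day compound treatment of spheroids formed overnight from 200 MIA PaCa-2 cells/well; compounds in 3.16-fold series, 0.1% DMSO final. IC50 derived by four-parameter fit of percent inhibition, normalized to DMSO control and medium blank.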

Structure (SMILES)	IC50 [1] [nM]	IC50 [2] [nM]
C=CC(=O)N1CCN2C(=O)c3c(N4C[C@@](C)(O)CC4(C)C)nc(-c4c(O)cccc4F)c(Cl)c3OC[C@H]2C1 (single isomer, unassigned) [Z243-1]	0.6	1.5
C=CC(=O)N1CCN2C(=O)c3c(N4C[C@H](N(C)C)C[C@@H]4C)nc(-c4c(O)cccc4F)c(Cl)c3OC[C@H]2C1 [Z237-1, (6aR)-8-acryloyl-4-chloro-1-((2S,4R)-4-(dimethylamino)-2-methylpyrrolidin-1-yl)-3-(2-fluoro-6-hydroxyphenyl)-6,6a,7,8,9,10-hexahydro-12H-pyrazino[2,1-c]pyrido[3,4-f][1,4]oxazepin-12-one]	14.6	
C=CC(=O)N1CCN2C(=O)c3c(N4CCN(C5CC5)C[C@@H]4C)nc(-c4c(O)cccc4F)c(Cl)c3OC[C@H]2C1 [Z312-1, (6aR)-8-acryloyl-4-chloro-1-((S)-4-cyclopropyl-2-methylpiperazin-1-yl)-3-(2-fluoro-6-hydroxyphenyl)-6,6a,7,8,9,10-hexahydro-12H-pyrazino[2,1-c]pyrido[3,4-f][1,4]oxazepin-12-one]	13.5	
C=CC(=O)N1CCN2C(=O)c3c(N4CC(O)CC4(C)C)nc(-c4c(O)cccc4F)c(C)c3OC[C@H]2C1 (single isomer, unassigned) [Z336-2]	5	
C=CC(=O)N1CCN2C(=O)c3c(N4C[C@H](O)[C@H]4C)nc(-c4c(O)cccc4F)c(Cl)c3OC[C@H]2C1 (single isomer, unassigned) [Z102-4]	15.4	
C=CC(=O)N1CCN2C(=O)c3c(N4CC(=O)N(CC)C[C@@H]4C)nc(-c4c(O)cccc4F)c(Cl)c3OC[C@H]2C1 [Z319-1, (6aR)-8-acryloyl-4-chloro-1-((S)-4-ethyl-2-methyl-5-oxopiperazin-1-yl)-3-(2-fluoro-6-hydroxyphenyl)-6,6a,7,8,9,10-hexahydro-12H-pyrazino[2,1-c]pyrido[3,4-f][1,4]oxazepin-12-one]	2.3	

Second part, the compound after the results:

IC50 [1] [nM]	IC50 [2] [nM]	Structure (SMILES)
2.6	4.9	C=CC(=O)N1CCN2C(=O)c3c(N4CCC(O)C4(C)C)nc(-c4c(O)cccc4F)c(Cl)c3OC[C@H]2C1 (stereo partly drawn) [Z241, (6aR)-8-acryloyl-1-(3-hydroxy-2,2-dimethylpyrrolidin-1-yl)-4-chloro-3-(2-fluoro-6-hydroxyphenyl)-6,6a,7,8,9,10-hexahydro-12H-pyrazino[2,1-c]pyrido[3,4-f][1,4]oxazepin-12-one]
0.7	0.9	C=CC(=O)N1CCN2C(=O)c3c(N4CC(N(C)C5COC5)CC4(C)C)nc(-c4c(O)cccc4F)c(Cl)c3OC[C@H]2C1 (stereo partly drawn) [Z326, (6aR)-8-acryloyl-4-chloro-1-(2,2-dimethyl-4-(methyl(oxetan-3-yl)amino)pyrrolidin-1-yl)-3-(2-fluoro-6-hydroxyphenyl)-6,6a,7,8,9,10-hexahydro-12H-pyrazino[2,1-c]pyrido[3,4-f][1,4]oxazepin-12-one]
1.3	3	C=CC(=O)N1CCN2C(=O)c3c(N4CC(N5CCOCC5)CC4(C)C)nc(-c4c(O)cccc4F)c(Cl)c3OC[C@H]2C1 (stereo partly drawn) [Z344, (6aR)-8-acryloyl-4-chloro-1-((2,2-dimethyl-4-morpholinopyrrolidin-1-yl))-3-(2-fluoro-6-hydroxyphenyl)-6,6a,7,8,9,10-hexahydro-12H-pyrazino[2,1-c]pyrido[3,4-f][1,4]oxazepin-12-one]
2.4	3.6	C=CC(=O)N1CCN2C(=O)c3c(N4C[C@@H](OC)C[C@@H]4C)nc(-c4c(O)cccc4F)c(Cl)c3OC[C@H]2C1 [Z260a, (6aR)-8-acryloyl-4-chloro-3-(2-fluoro-6-hydroxyphenyl)-1-((2S,4S)-4-methoxy-2-methylpyrrolidin-1-yl)-6,6a,7,8,9,10-hexahydro-12H-pyrazino[2,1-c]pyrido[3,4-f][1,4]oxazepin-12-one]
2.4		C=CC(=O)N1CCN2C(=O)c3c(N4CC(CO)CC4(C)C)nc(-c4c(O)cccc4F)c(Cl)c3OC[C@H]2C1 (stereo partly drawn) [Z240, (6aR)-8-acryloyl-4-chloro-3-(2-fluoro-6-hydroxyphenyl)-1-(4-(hydroxymethyl)-2,2-dimethylpyrrolidin-1-yl)-6,6a,7,8,9,10-hexahydro-12H-pyrazino[2,1-c]pyrido[3,4-f][1,4]oxazepin-12-one]
